Source: patent US20240002393A1, “SUBSTITUTED BENZO[f][l ,2,4JTRIAZOL0[4,3-a][l ,4J[…] GABA A GAMMA! POSITIVE ALLOSTERIC MODULATORS” (Hoffmann-La Roche Inc., priority 2020, published 2024)

Target: h-GABA-A α2β2γ1 (Homo sapiens (Human), UniProt P47869+Q8N1C3)
Assay: Two-electrode voltage clamp electrophysiology in Xenopus oocytes expressing GABAA receptors
Type: cell-based
Settings: for Efficacy (GABA)%: % modulation of GABA EC20 = 100*(Fold increase−1), compound at 30-fold Ki; for Fold increase h-GABA-A α2β2γ1 oocyte @ 30-fold Ki: GABA EC20, test compound at about 30-fold its Ki α2β2γ1, at least 3 oocytes
Description: Xenopus laevis oocytes at maturation stages V-VI were used for the expression of cloned mRNA encoding GABAA receptor subunits. Oocytes ready for RNA micro-injection were bought from Ecocyte, Castrop-Rauxel, Germany and stored in modified Barth's medium (composition in mM: NaCl 88, KCl 1, NaHCO3 2.4, HEPES 10, MgSO4 0.82, CaNO3 0.33, CaCl2 0.33, pH=7.5) at 20° C. until the experiment.
Oocytes were plated in 96-well plates for microinjection using the Roboinject automated instrument (MultiChannelSystems, Reutlingen, Germany). Approximately 50 nL of an aqueous solution containing the RNA transcripts for the subunits of the desired GABAA receptor subtype was injected into each oocyte. […] Oocytes were kept in modified Barth's medium (composition in mM: NaCl 88, KCl 1, NaHCO3 […], HEPES 10, MgSO4 0.82, CaNO3 0.33, CaCl2 0.33, pH=7.5) at 20° C. until the experiment.
Electrophysiological experiments were performed using the Roboocyte instrument (MultiChannelSystems, Reutlingen, Germany) on days 3 to 5 after the micro-injection of mRNA. During the experiment the oocytes were constantly superfused by a solution containing (in mM) NaCl 90, KCl 1, HEPES 5, MgCl2 1 CaCl2 1 (pH 7.4). Oocytes were impaled by two glass microelectrodes (resistance: 0.5-0.8 MΩ) which were filled with a solution containing KCl 1M+K-acetate 1.5 M and voltage-clamped to −80 mV. The recordings were performed at room temperature using the Roboocyte two-electrode voltage clamp system (Multichannelsystem). After an initial equilibration period of 1.5 min GABA was added for 1.5 min at a concentration evoking approximately 20% of a maximal current response (EC20). After another rest interval of 2.5 min GABA was again added evoking a response of similar amplitude and shape. […] Current traces were recorded at a digitization rate of 10 Hz during and shortly before and after the GABA application.
Each compound and concentration was tested on at least 3 oocytes. Different oocytes were used for different compound concentrations.
For the analysis, the digitized current traces of the first and second GABA response were superimposed and, if necessary, rescaled to equal maximal amplitudes. The ratio between the two responses during the time interval of test compound application was calculated point by point. The extremum of the resulting “ratio trace” was taken as the efficacy (“Fold increase”) of the compound expressed as “% modulation of GABA EC20” (100*(Fold increase−1)).

| SMILES | Efficacy (GABA)% [%] | Fold increase h-GABA-A α2β2γ1 oocyte @ 30-fold Ki |
| --- | --- | --- |
| Cc1cc(-c2nnc3n2-c2ccc(Cl)c(Cl)c2C(c2c(F)cccc2F)=N[C@H]3C)on1 [Example 87, 5-[(4S)-7,8-dichloro-6-(2,6-difluorophenyl)-4-methyl-4H-[1,2,4]triazolo[4,3-a][1,4]benzodiazepin-1-yl]-3-methyl-isoxazole] | 42 | 1.42 |
| Cc1ccc(-c2nnc3n2-c2ccc(Cl)c(Br)c2C(c2c(F)cccc2F)=N[C@H]3C)nn1 [Example 88, (4S)-7-bromo-8-chloro-6-(2,6-difluorophenyl)-4-methyl-1-(6-methylpyridazin-3-yl)-4H-[1,2,4]triazolo[4,3-a][1,4]benzodiazepine] | 105 | 2.05 |
| C[C@@H]1N=C(c2c(F)cccc2F)c2c(ccc(Cl)c2Br)-n2c1n[nH]c2=O [Example 89, (4S)-7-bromo-8-chloro-6-(2,6-difluorophenyl)-4-methyl-2,4-dihydro-[1,2,4]triazolo[4,3-a][1,4]benzodiazepin-1-one] | 88 | 1.88 |
| Cc1nnc2n1-c1ccc(C(F)(F)F)c(Cl)c1C(c1c(F)cccc1F)=N[C@H]2C [Example 92, (4S)-7-chloro-6-(2,6-difluorophenyl)-1,4-dimethyl-8-(trifluoromethyl)-4H-[1,2,4]triazolo[4,3-a][1,4]benzodiazepine] | 92 | 1.92 |
| Cc1nnc2n1-c1ccc(C(C)(F)F)c(Cl)c1C(c1c(F)cccc1F)=N[C@H]2C [Example 93, (4S)-7-chloro-8-(1,1-difluoroethyl)-6-(2,6-difluorophenyl)-1,4-dimethyl-4H-[1,2,4]triazolo[4,3-a][1,4]benzodiazepine] | 169 | 2.69 |
| Cc1cc(-c2nnc3n2-c2ccc(Cl)c(Cl)c2C(c2c(F)cccc2F)=N[C@H]3C)ncn1 [Example 94, (4S)-7,8-dichloro-6-(2,6-difluorophenyl)-4-methyl-1-(6-methylpyrimidin-4-yl)-4H-[1,2,4]triazolo[4,3-a][1,4]benzodiazepine] | 47 | 1.47 |
| Cc1nccc(-c2nnc3n2-c2ccc(Cl)c(Cl)c2C(c2c(F)cccc2F)=N[C@H]3C)n1 [Example 95, (4S)-7,8-dichloro-6-(2,6-difluorophenyl)-4-methyl-1-(2-methylpyrimidin-4-yl)-4H-[1,2,4]triazolo[4,3-a][1,4]benzodiazepine] | 53 | 1.53 |
| Cc1cc(-c2nnc3n2-c2ccc(Cl)c(Cl)c2C(c2c(F)cccc2F)=N[C@H]3C)nc(C)n1 [Example 96, (4S)-7,8-dichloro-6-(2,6-difluorophenyl)-1-(2,6-dimethylpyrimidin-4-yl)-4-methyl-4H-[1,2,4]triazolo[4,3-a][1,4]benzodiazepine] | 52 | 1.52 |
| Cc1ccc2c(c1Cl)C(c1c(F)cccc1F)=N[C@@H](C)c1nnc(C)n1-2 [Example 97, (4S)-7-chloro-6-(2,6-difluorophenyl)-1,4,8-trimethyl-4H-[1,2,4]triazolo[4,3-a][1,4]benzodiazepine] | 148 | 2.48 |
| CC[C@@H]1N=C(c2c(F)cccc2F)c2c(ccc(Br)c2Cl)-n2c(C)nnc21 [Example 98, (4S)-8-bromo-7-chloro-6-(2,6-difluorophenyl)-4-ethyl-1-methyl-4H-[1,2,4]triazolo[4,3-a][1,4]benzodiazepine] | 107 | 2.07 |
| Cc1nnc2n1-c1ccc(C(F)F)c(Cl)c1C(c1c(F)cccc1F)=N[C@H]2C [Example 99, (4S)-7-chloro-8-(difluoromethyl)-6-(2,6-difluorophenyl)-1,4-dimethyl-4H-[1,2,4]triazolo[4,3-a][1,4]benzodiazepine] | 135 | 2.35 |
| COC[C@@H]1N=C(c2c(F)cccc2F)c2c(ccc(Br)c2Cl)-n2c(C)nnc21 [Example 100, (4R)-8-bromo-7-chloro-6-(2,6-difluorophenyl)-4-(methoxymethyl)-1-methyl-4H-[1,2,4]triazolo[4,3-a][1,4]benzodiazepine] | 64 | 1.64 |
| Cc1nnc2n1-c1ccc(Br)c(Cl)c1C(c1c(F)cccc1F)=N[C@H]2CO [Example 101, [(4R)-8-bromo-7-chloro-6-(2,6-difluorophenyl)-1-methyl-4H-[1,2,4]triazolo[4,3-a][1,4]benzodiazepin-4-yl]methanol] | 119 | 2.19 |
| Cc1nnc2n1-c1ccc(I)c(Cl)c1C(c1c(F)cccc1F)=N[C@H]2C [Example 102, (4S)-7-chloro-6-(2,6-difluorophenyl)-8-iodo-1,4-dimethyl-4H-[1,2,4]triazolo[4,3-a][1,4]benzodiazepine] | 89 | 1.89 |
| C[C@@H]1N=C(c2c(F)cccc2F)c2c(ccc(C(F)(F)F)c2Cl)-n2c(CO)nnc21 [Example 103, [(4S)-7-chloro-6-(2,6-difluorophenyl)-4-methyl-8-(trifluoromethyl)-4H-[1,2,4]triazolo[4,3-a][1,4]benzodiazepin-1-yl]methanol] | 123 | 2.23 |
| COC[C@@H]1N=C(c2c(F)cccc2F)c2c(ccc(C(F)(F)F)c2Cl)-n2c(C)nnc21 [Example 105, (4R)-7-chloro-6-(2,6-difluorophenyl)-4-(methoxymethyl)-1-methyl-8-(trifluoromethyl)-4H-[1,2,4]triazolo[4,3-a][1,4]benzodiazepine] | 75 | 1.75 |
| Cc1nnc2n1-c1ccc(C(F)(F)F)c(Cl)c1C(c1c(F)cccc1F)=N[C@H]2CO [Example 106, [(4R)-7-chloro-6-(2,6-difluorophenyl)-1-methyl-8-(trifluoromethyl)-4H-[1,2,4]triazlo[4,3-a][1,4]benzodiazepin-4-yl]methanol] | 121 | 2.21 |
| C[C@@H]1N=C(c2c(F)cccc2F)c2c(ccc(C(F)(F)F)c2Cl)-n2cnnc21 [Example 107, (4S)-7-chloro-6-(2,6-difluorophenyl)-4-methyl-8-(trifluoromethyl)-4H-[1,2,4]triazolo[4,3-a][1,4]benzodiazepine] | 147 | 2.47 |
| CCc1ccc2c(c1Cl)C(c1c(F)cccc1F)=N[C@@H](C)c1nnc(C)n1-2 [Example 109, (4S)-7-chloro-6-(2,6-difluorophenyl)-8-ethyl-1,4-dimethyl-4H-[1,2,4]triazolo[4,3-a][1,4]benzodiazepine] | 230 | 3.30 |
